Assay results published in patent US20090318514A1, “Novel Pharmaceutical Compositions” (priority 2006, published 2009).

What was measured:
CHO/hThRβ1 = target: T1, CHO/hThRβ1 (Homo sapiens, UniProt P10828); assay: Reporter cell line (TRAF) assay, agonist activity; format: cell-based; conditions: CHO/hThRβ1 reporter cells, alkaline phosphatase readout after 48 hours
T1 construct: The cDNAs encoding the full length human ThRα1 and ThRβ1 were cloned; expressed in transfected cells
T1 sequence (P10828 1-461): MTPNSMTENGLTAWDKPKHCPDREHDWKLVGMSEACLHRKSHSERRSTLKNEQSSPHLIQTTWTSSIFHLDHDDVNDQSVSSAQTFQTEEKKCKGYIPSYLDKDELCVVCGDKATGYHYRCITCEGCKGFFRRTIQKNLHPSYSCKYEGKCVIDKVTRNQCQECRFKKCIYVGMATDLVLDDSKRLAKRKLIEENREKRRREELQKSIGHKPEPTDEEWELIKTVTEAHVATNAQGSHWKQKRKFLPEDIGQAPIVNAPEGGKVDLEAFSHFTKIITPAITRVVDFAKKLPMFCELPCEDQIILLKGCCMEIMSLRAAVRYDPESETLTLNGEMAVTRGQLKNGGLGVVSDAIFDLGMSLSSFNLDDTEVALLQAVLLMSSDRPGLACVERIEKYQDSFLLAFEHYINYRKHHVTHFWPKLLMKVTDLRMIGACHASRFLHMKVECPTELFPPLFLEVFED
Excerpt: Vector Constructs, Generation of Reporter Cell Lines (TRAF), and Assay Procedure.
The cDNAs encoding the full length human ThRα1 and ThRβ1 were cloned in the mammalian expression vector pMT-hGH. The pDR4-ALP reporter vector contains one copy of the direct repeat sequence AGGTCA nnnnAGGTCA, fused upstream of the core promoter sequences of the mouse mammary tumor virus long terminal repeat (MMTV), replacing the glucocorticoid response elements. The DR4-MMTV promoter fragment was then cloned in the 5′ end of the cDNA encoding human placental alkaline phosphatase (ALP), followed in the 3′-end by the polyA-signal sequence of the human growth hormone gene. Chinese hamster ovary (CHO) K1 cells (ATCC No. CCL 61) were transfected in two steps, first with the receptor expression vectors pMT-hThRα1 and pMT-THRβ1, respectively, and the drug resistance vector pSV2-Neo, and in the second step, with the reporter vector pDR4-ALP and the drug resistance vector pKSV-Hyg. Individual drug resistant clones were isolated and selected based on T3 inducibility. One stable reporter cell clone each of CHO/hThRα1 and CHO/hThRβ1 were chosen for further study in response to various thyroid hormone agonists.
CHO/hThRα1 and CHO/hThRβ1 were seeded in growth medium (Coon's/F12, 10% L-3,5,3′-triiodothyronine and L-thyroxine depleted FCS, 2 mM L-glutamine) in 96-well plates at 20×10^3 cells per well. After 24 hour incubation at 37° C. in humidified chambers, at 5% CO2, conditioned medium was replaced by induction medium (OptiMEM, 2 mM L-glutamine, 50 μm/mL gentamycin) and cells were exposed to the test compounds at serial dilutions, at final DMSO concentration of 0.5% , or to serial dilution of T3 (positive control), to assess agonist activity of test compounds.
After 48 hours incubation at 37° C. in humidified chambers at 5% CO2 the level of alkaline phosphatase expressed and secreted into the cell culture medium was analyzed by chemiluminescence on MicroBeta Trilux.
The assay procedure described above was carried out for the compounds of Examples 1 to 40, 43-44 and 47-48.

hTRβ = target: T2, hTRβ (Homo sapiens, UniProt P10828); assay: TR competition binding assay with filter separation; conditions: competition with 125I-T3 tracer, full length hTRβ; read-out: TR-β IC50
T2 sequence (P10828 1-461): T1 sequence (P10828 1-461)
Method: TR Competition Binding Assay with Filter Separation
Compounds are tested for their ability to compete with the tracer ^125I-T3 for binding to full length hTRα and hTRβ. Receptor extracts and tracer are diluted in assay buffer (17 mM K2HPO4, 3 mM KH2PO4, 400 mM KCl, 1 mM MgCl2, 0.5 mM EDTA and 8.7% glycerol). ^125I-T3 is diluted to a final concentration of 0.2 nM and receptor is diluted to reach a final count in Trilux Microbeta of approximately 10000 ccpm. Compounds are typically serially diluted in DMSO from DMSO stock solutions of 10 mM. To 96 well microtiter plates are 100 μl tracer, 4 μl test compound dilution series and 100 μl receptor dilution added. The assay plates are incubated at +4° C. overnight (app. 16 h incubation). Receptor bound and free tracer are separated over a glass fiber filter (FILTERMAT B, PerkinElmer) on a Tomtec Cellharvester with 18 mM K2HPO4, 2 mM KH2PO4, 0.5 mM EDTA wash buffer. The filters are dried at 60° C. for 1 h and then merged with a scintillant wax (MELTILEX, PerkinElmer) on a Wallac Microsealer before measuring in a Trilux Microbeta. IC50s, the concentration test compound needed to decrease tracer binding by 50 percent, are generated via analysis of data in XLfit version 2.0 or later with a four parameter logistic model.

Row | β % agonism (CHO/hThRβ1) [%] | IC50 (hTRβ) [nM] | SMILES
1 | 100 | 0.14 | CC(C)Cc1nc2cc(Oc3c(Br)cc(CC(F)C(=O)O)cc3Br)ccc2[nH]1 (racemic) [Example 10, 3-(3,5-dibromo-4-{[2-isobutyl-1H-benzimidazol-5-yl]oxy}phenyl)-2-fluoropropanoic acid]
2 | 91 | 5.5 | O=C(O)CCCc1cc(Br)c(Oc2ccc3[nH]c(-c4ccc(F)cc4)nc3c2)c(Br)c1 [Example 5, 4-(3,5-dibromo-4-{[2-(4-fluorophenyl)-1H-benzimidazol-5-yl]oxy}phenyl)butanoic acid]
3 | 99 | 2.4 | Cc1cccc(-c2nc3cc(Oc4c(Br)cc(CCC(=O)O)cc4Br)ccc3[nH]2)c1 [Example 11, 3-(3,5-dibromo-4-{[2-(3-methylphenyl)-1H-benzimidazol-5-yl]oxy}phenyl)propanoic acid]
4 | 70 | 1.7 | CC(C)(C)Cc1nc2cc(Oc3c(Br)cc(OCC(=O)O)cc3Br)ccc2[nH]1 [Example 15, {3,5-dibromo-4-{[2-(2,2-dimethylpropyl)-1H-benzimidazol-5-yl)oxy]phenoxy}acetic acid]
5 | 70 | 7.5 | CCCc1nc2cc(Oc3c(Br)cc(OCC(=O)O)cc3Br)ccc2[nH]1 [Example 17]
6 | 75 | 0.49 | Cc1nc(-c2nc3cc(Oc4c(Br)cc(CC(F)C(=O)O)cc4Br)ccc3[nH]2)c(C)o1 (stereo not drawn) [Example 32, 3-{3,5-Dibromo-4-[2-(2,5-dimethyl-oxazol4-yl)-1H-benzoimidazol-5-yloxy]-phenyl}-2-fluoropropionic acid]
